{
  "source": "patent US4954504A",
  "about": "“N9 -cyclopentyl-substituted adenine derivatives having adenosine-2 receptor stimulating activity” (Ciba-Geigy Corporation, priority 1988, dated 1990)",
  "test_system": "collagen-induced platelet aggregation",
  "assay": "Inhibition of collagen-induced platelet aggregation in human plasma",
  "type": "cell-based",
  "note": "Structures can show the parent of a compound that is named as a salt.",
  "data": [
    {"smiles": "CCNC(=O)[C@H]1C[C@@H](n2cnc3c(N)nc(NCCc4ccc(CCC(=O)O)cc4)nc32)[C@H](O)[C@@H]1O", "note": "(relative stereo) [Example 7a, 2-alpha,3-alphadihydroxy-4β-[2-(p-carboxyethyl-phenethylamino)-9-adenyl]-cyclopentane-1β-N-ethylcarboxamide hydrochloride]", "values": [
      {"measurement": "IC50", "result": "~1500", "unit": "nM"}
    ]}
  ]
}
